In US20230203043A1, “NOVEL IMIDAZOPYRAZINE DERIVATIVES” (Hoffmann-La Roche Inc., priority 2020, published 2023):
Structures can show the parent of a compound that is named as a salt.

system: Acinetobacter baumannii ATCC17961; test: Antimicrobial susceptibility testing: 90% growth inhibitory concentration (IC90) determination in Iso-Sensitest broth, OD600 growth; assay type: cell-based; details: Acinetobacter baumannii, ATCC17961, 16 h, read-out: A. baumannii ATCC 17961 IC90 (uM), strain ATCC 17961, OD600 growth over 16 h
Method in brief: (§1)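 OD600 read every 20 min for 16 h at 35±2° C; inhibition taken in log phase to derive IC90. Twofold, 10-point dilutions (e.g. 50–0.097 μM final), inoculum ~5×10^(5) CFU/ml.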

Row | Compound | IC90 [µM]
1 | Cc1cc(Nc2nccn3c(-c4cn(CC#N)nc4C(F)(F)F)cnc23)cc(F)c1C(=O)N1CCN(C(=O)[C@@H]2C[C@@H](O)CN2)CC1 [Example 721, 2-(4-(8-((3-fluoro-4-(4-((2S,4R)-4-hydroxypyrrolidine-2-carbonyl)piperazine-1-carbonyl)-5-methylphenyl)amino)imidazo[1,2-a]pyrazin-3-yl)-3-(trifluoromethyl)-1H-pyrazol-1-yl) acetonitrile formate] | 0.452
2 | Cc1cc(Nc2nccn3c(-c4cn(C)nc4C(F)(F)F)cnc23)ccc1C(=O)N1CCN(C(=O)[C@@H]2C[C@](C)(O)CN2)CC1 [Example 472, formic acid; [4-[(2S,4S)-4-hydroxy-4-methylpyrrolidine-2-carbonyl]piperazin-1-yl]-[2-methyl-4-[[3-[1-methyl-3-(trifluoromethyl)pyrazol-4-yl]imidazo[1,2-a]pyrazin-8-yl]amino]phenyl]methanone] | 1.24
3 | COCCn1cc(-c2cnc3c(Nc4ccc(C(=O)N5CCN(C(=O)N[C@@H]6CCNC6)CC5)c(Cl)c4)nccn23)c(C(F)(F)F)n1 [Example 296, 4-[2-chloro-4-[[3-[1-(2-methoxyethyl)-3-(trifluoromethyl)pyrazol-4-yl]imidazo[1,2-a]pyrazin-8-yl]amino]benzoyl]-N-[(3R)-pyrrolidin-3-yl]piperazine-1-carboxamide formate] | 0.491
4 | CCc1cc(Nc2nccn3c(-c4cn(CC(F)F)nc4C(F)(F)F)cnc23)ccc1C(=O)NCC(=O)NCC1(O)CNC1 [Example 546, 4-[[3-[1-(2,2-difluoroethyl)-3-(trifluoromethyl)pyrazol-4-yl]imidazo[1,2-a]pyrazin-8-yl]amino]-2-ethyl-N-[2-[(3-hydroxyazetidin-3-yl)methylamino]-2-oxo-ethyl]benzamide formate] | 0.298
5 | Cc1cc(Nc2nccn3c(-c4cn(C)nc4C(F)(F)F)cnc23)ccc1C(=O)N1CCN(C(=O)N[C@H]2CNC[C@@H]2O)CC1 [Example 470, formic acid; N-[(3S,4S)-4-hydroxypyrrolidin-3-yl]-4-[2-methyl-4-[[3-[1-methyl-3-(trifluoromethyl)pyrazol-4-yl]imidazo[1,2-a]pyrazin-8-yl]amino]benzoyl]piperazine-1-carboxamide] | 0.793

same assay, conditions: Acinetobacter baumannii, ATCC17961, 16 h, strain ATCC 17961, OD600 growth over 16 h, read-out: A. baumannii ATCC 17961 IC90

Row | Compound | IC90 [µM]
6 | CCc1cc(Nc2nccn3c(-c4cn(C)nc4C(F)(F)F)cnc23)ccc1C(=O)NCCOCCN [Example 1, N-[2-(2-aminoethoxy)ethyl]-2-ethyl-4-[[3-[1-methyl-3-(trifluoromethyl)pyrazol-4-yl]imidazo[1,2-a]pyrazin-8-yl]amino]benzamide] | 0.623
7 | Cc1cc(Nc2nccn3c(-c4c[nH]nc4C(F)(F)F)cnc23)ccc1C(=O)N1CCN(C(=O)CCCN)CC1 [Example 420, 4-amino-1-[4-[2-methyl-4-[[3-[3-(trifluoromethyl)-1H-pyrazol-4-yl]imidazo[1,2-a]pyrazin-8-yl]amino]benzoyl]piperazin-1-yl]butan-1-one] | 0.746
8 | CCc1cc(Nc2nccn3c(-c4cn(CCF)nc4C(F)(F)F)cnc23)ccc1C(=O)NCCOCC(C)(C)N [Example 54, N-[2-(2-amino-2-methylpropoxy)ethyl]-2-ethyl-4-[[3-[1-(2-fluoroethyl)-3-(trifluoromethyl)pyrazol-4-yl]imidazo[1,2-a]pyrazin-8-yl]amino]benzamide] | 0.162
9 | Cc1cc(Nc2nccn3c(-c4cn(CC(F)F)nc4C(F)(F)F)cnc23)cc(F)c1C(=O)NCCCCCCN [Example 615, N-(6-aminohexyl)-4-((3-(1-(2,2-difluoroethyl)-3-(trifluoromethyl)-1H-pyrazol-4-yl)imidazo[1,2-a]pyrazin-8-yl)amino)-2-fluoro-6-methylbenzamide] | 0.122
10 | NCCNC(=O)CNCCNC(=O)c1ccc(Nc2nccn3c(-c4cn(CC(F)F)nc4C(F)(F)F)cnc23)cc1Cl [Example 820, N-(2-((2-((2-aminoethyl)amino)-2-oxoethyl)amino)ethyl)-2-chloro-4-(3-(1-(2,2-difluoroethyl)-3-(trifluoromethyl)-1H-pyrazol-4-yl)imidazo[1,2-a]pyrazin-8-yl)amino) benzamide formate] | 0.15
11 | CCc1cc(Nc2nccn3c(-c4c[nH]nc4C(F)(F)F)cnc23)ccc1C(=O)NCCNC(=O)[C@H]1CC[C@@H](N)C1 [Example 724, N-(2-((1S,3R)-3-aminocyclopentane-1-carboxamido)ethyl)-2-ethyl-4-((3-(3-(trifluoromethyl)-1H-pyrazol-4-yl)imidazo[1,2-a]pyrazin-8-yl)amino)benzamide] | 0.459
12 | CCc1cc(Nc2nccn3c(-c4cn(CC#N)nc4C(F)(F)F)cnc23)ccc1C(=O)NCCNC(=O)N1CC[C@@H](N)C1 [Example 520, (R)-3-amino-N-(2-(4-((3-(1-(cyanomethyl)-3-(trifluoromethyl)-1H-pyrazol-4-yl)imidazo [1,2-a]pyrazin-8-yl)amino)-2-ethylbenzamido)ethyl) pyrrolidine-1-carboxamide formate] | 0.27
13 | CCc1cc(Nc2nccn3c(-c4cn(CC#N)nc4C(F)(F)F)cnc23)ccc1C(=O)NCCNC(=O)[C@H]1C[C@@H](N)C1 [Example 498, cis-N-(2-((1s,3s)-3-aminocyclobutane-1-carboxamido)ethyl)-4-((3-(1-(cyanomethyl)-3-(trifluoromethyl)-1H-pyrazol-4-yl)imidazo[1,2-a]pyrazin-8-yl)amino)-2-ethylbenzamide formate] | 0.193
14 | C#CCn1cc(-c2cnc3c(Nc4cc(C)c(C(=O)N5CCN(C(=O)[C@H]6CC[C@H](O)N6)CC5)c(F)c4)nccn23)c(C(F)(F)F)n1 [Example 646, (4-(2-fluoro-6-methyl-4-((3-(1-(prop-2-yn-1-yl)-3-(trifluoromethyl)-1H-pyrazol-4-yl)imidazo[1,2-a]pyrazin-8-yl)amino)benzoyl)piperazin-1-yl)((2R,5S)-5-hydroxypyrrolidin-2-yl)methanone] | 0.243
15 | N#CCn1cc(-c2cnc3c(Nc4ccc(C(=O)N5CCC(NC(=O)N[C@H]6CCNC6)CC5)c(Cl)c4)nccn23)c(C(F)(F)F)n1 [Example 11, 1-[1-[2-chloro-4-[[3-[1-(cyanomethyl)-3-(trifluoromethyl)pyrazol-4-yl]imidazo[1,2-a]pyrazin-8-yl]amino]benzoyl]piperidin-4-yl]-3-[(3S)-pyrrolidin-3-yl]urea] | 0.204
16 | CCOCCCNC(=O)c1ccc(Nc2nccn3c(-c4cn(CC#N)nc4C(F)(F)F)cnc23)cc1CC [Example 205, 4-[[3-[1-(cyanomethyl)-3-(trifluoromethyl)pyrazol-4-yl]imidazo[1,2-a]pyrazin-8-yl]amino]-N-(3-ethoxypropyl)-2-ethylbenzamide] | 0.256
17 | CCc1cc(Nc2nccn3c(-c4cn(CC#N)nc4C(F)(F)F)cnc23)ccc1C(=O)NCC(=O)NCC1CNC1 [Example 521, N-[2-(azetidin-3-ylmethylamino)-2-oxo-ethyl]-4-[[3-[1-(cyanomethyl)-3-(trifluoromethyl)pyrazol-4-yl]imidazo[1,2-a]pyrazin-8-yl]amino]-2-ethyl-benzamide formate] | 0.38

same assay, conditions: strain ATCC 17961, OD600 growth over 16 h, read-out: A. baumannii ATCC 17961 IC90

Row | Compound | IC90 [µM]
18 | N-[2-(2- aminoethoxy)ethyl]- 2-ethyl-4-[[3- [1- (methoxymethyl)- 3- (trifluoromeethyl) pyrazol-4- yl]imidazo[1,2- a]pyrazin-8- yl]amino] benzamide formate [Example 22] | 1.84
19 | CCc1cc(Nc2nccn3c(-c4c[nH]nc4C(F)(F)F)cnc23)ccc1C(=O)NCCOCCN [Example 23, N-[2-(2-aminoethoxy)ethyl]-2-ethyl-4-[[3-[3-(trifluoromeethyl) 1H-pyrazol-4-yl]imidazo[1,2-a]pyrazin-8-yl]amino] benzamide formate] | 0.128

system: Acinetobacter baumannii ATCC17968; test: as above; assay type: cell-based; details: Acinetobacter baumannii, ATCC 17968 / ATCC 17978, 16 h, read-out: A. baumannii ATCC 17978 IC90 (uM)
Method in brief: as §1

Row | Compound | IC90 [µM]
20 | CCc1cc(Nc2nccn3c(-c4cnn(CC(F)F)c4)cnc23)ccc1C(=O)NCCOCCN [Example 21, N-[2-(2-aminoethoxy)ethyl]-4-[[3-[1-(2,2-difluoroethyl)pyrazol-4-yl]imidazo[1,2-a]pyrazin-8-yl]amino]-2-ethylbenzamide formate] | 4.43

same assay, conditions: Acinetobacter baumannii, ATCC 17968 / ATCC 17978; strain ATCC 17978; Iso-Sensitest broth, OD600 growth over 16 h; read-out: A. baumannii ATCC 17978 IC90

Row | Compound | IC90 [µM]
21 | CCc1cc(Nc2nccn3c(-c4cn(C)nc4C(F)(F)F)cnc23)ccc1C(=O)NCCOCCN [Example 1, N-[2-(2-aminoethoxy)ethyl]-2-ethyl-4-[[3-[1-methyl-3-(trifluoromethyl)pyrazol-4-yl]imidazo[1,2-a]pyrazin-8-yl]amino]benzamide] | 0.93

same assay, conditions: strain ATCC 17978; Iso-Sensitest broth, OD600 growth over 16 h; read-out: A. baumannii ATCC 17978 IC90

Row | Compound | IC90 [µM]
22 | N-[2-(2- aminoethoxy)ethyl]- 2-ethyl-4-[[3- [1- (methoxymethyl)- 3- (trifluoromeethyl) pyrazol-4- yl]imidazo[1,2- a]pyrazin-8- yl]amino] benzamide formate [Example 22] | 1.84
23 | CCc1cc(Nc2nccn3c(-c4c[nH]nc4C(F)(F)F)cnc23)ccc1C(=O)NCCOCCN [Example 23, N-[2-(2-aminoethoxy)ethyl]-2-ethyl-4-[[3-[3-(trifluoromeethyl) 1H-pyrazol-4-yl]imidazo[1,2-a]pyrazin-8-yl]amino] benzamide formate] | 0.297
